The subject of one assay is TEL-KIT/S709F-BaF3. Nature of the assay: Proliferation of TEL-KIT/S709F-BaF3 cells (CCK-8). Particulars: Mus musculus; 72 hours, CCK-8; read-out: GI50 TEL-KIT/S709F-BaF3. It is filed as cell-based. An excerpt:
(§1) Compounds as provided herein were further evaluated for their inhibitory effects on proliferation of cancer cells by testing their effects on growth of cancer cells. In this example the following cells were used: primary mouse B cells BaF3 (purchased from ATCC), GIST-T1 cells of the human gastrointestinal stromal tumor cell line (expressing wild-type KIT gene) (purchased from Cosmo Bio Co., Ltd. (Japan)). The present lab further constructed and used the following: mouse Tel-Kit-BaF3 (stably expressing KIT wild-type kinase), mouse Tel-Kit/T670I-BaF3 (stably expressing KIT T670I mutant kinase), mouse Tel-Kit/V559A-BaF3 (stably expressing KIT V559A mutant kinase), mouse Tel-Kit/V559D-BaF3 (stably expressing KIT V559D mutant kinase), mouse Tel-Kit/V559G-BaF3 (stably expressing KIT V559G mutant kinase), mouse Tel-Kit/V560D-BaF3 (stably expressing KIT V560D mutant kinase), mouse Tel-Kit/L576P-BaF3 (stably expressing KIT L576P mutant kinase), mouse Tel-Kit/V654A-BaF3 (stably expressing KIT V654A mutant kinase), mouse Tel-Kit/V654A/V559D-BaF3 (stably expressing KIT V654A V559D mutant kinase), mouse Tel-Kit/T670E-BaF3 (stably expressing KIT T670E mutant kinase), mouse Tel-Kit/T670I/V559D-BaF3 (stably expressing KIT T670I V559D mutant kinase), mouse Tel-Kit/S709F-BaF3 (stably expressing KIT S709F mutant kinase), mouse Tel-Kit/D816E-BaF3 (stably expressing KIT D816E mutant kinase), mouse Tel-Kit/D816H-BaF3 (stably expressing KIT D816H mutant kinase), mouse Tel-Kit/D820E-BaF3 (stably expressing KIT D820E mutant kinase), mouse Tel-Kit/D820G-BaF3 (stably expressing KIT D820G mutant kinase), mouse Tel-Kit/D820Y-BaF3 (stably expressing KIT D820Y mutant kinase), mouse Tel-Kit/N822K-BaF3 (stably expressing KIT N822K mutant kinase), mouse Tel-Kit/Y823D-BaF3 (stably expressing KIT Y823D mutant kinase), mouse Tel-Kit/A829P-BaF3 (stably expressing KIT A829P mutant kinase), GIST-T1-T670I cells of the human gastrointestinal stromal tumor cell line (expressing KIT-T670I mutant gene). The above cell lines were constructed by: amplifying respectively the sequences of human KIT and various mutant kinase regions of KIT via PCR, inserting the fragments respectively into MSCV-Puro vectors having a N-terminal TEL fragment and/or a NPM fragment and/or a TPR fragment (purchased from Clontech), transfecting mouse BaF3 cells with the vectors by means of retrovirus to obtain stably transfected cells, removing the growth factor IL-3, and thereby eventually obtaining cell lines that depend on the transferred protein KIT or various mutants of KIT. […]

Another assay relates to GIST-T1/T670I. Nature of the assay: Proliferation of GIST-T1/T670I cells (CCK-8). Format: cell-based. The note with it: Homo sapiens, GISTT1; 72 hours, CCK-8; read-out: GI50 GIST-T1/T670I.
Text: as §1, with “gene).” for “gene). The above cell lines were constructed by: amplifying respectively the sequences of human KIT and various mutant kinase regions of KIT via PCR, inserting the fragments respectively into MSCV-Puro vectors having a N-terminal TEL fragment and/or a NPM fragment and/or a TPR fragment (purchased from Clontech), transfecting mouse BaF3 cells with the vectors by means of retrovirus to obtain stably transfected cells, removing the growth factor IL-3, and thereby eventually obtaining cell lines that depend on the transferred protein KIT or various mutants of KIT.”
(§2) The cells after incubation were detected using CCK-8 (purchased from MedChem Express, Shanghai, China) cell viability assay kit (CCK-8 may be reduced by dehydrogenase in living cells to a highly water-soluble yellow formazan product, and the amount of the resultant formazan is proportional to the number of living cells), the number of living cells were quantified with a microplate reader, and GI50 of the compounds and the control compounds were calculated (the results shown in Table 2 and Table 3).

In the next assay the test system is TEL-KIT/D816H-BaF3. In words: Proliferation of TEL-KIT/D816H-BaF3 cells (CCK-8). Particulars: Mus musculus; 72 hours, CCK-8; read-out: GI50 TEL-KIT/D816H-BaF3. Format: cell-based.
Text: as §1

A further assay relates to TEL-KIT/Y823D-BaF3. Nature of the assay: Proliferation of TEL-KIT/Y823D-BaF3 cells (CCK-8). Format: cell-based. The note with it: Mus musculus; 72 hours, CCK-8; read-out: GI50 TEL-KIT/Y823D-BaF3.
Text: as §1

The next assay has as its system TEL-KIT/D820G-BaF3. Nature of the assay: Proliferation of TEL-KIT/D820G-BaF3 cells (CCK-8). It is filed as cell-based. The note with it: Mus musculus; 72 hours, CCK-8; read-out: GI50 TEL-KIT/D820G-BaF3.
Text: as §1

The test system of a further assay is TEL-KIT/V559A-BaF3. Nature of the assay: Proliferation of TEL-KIT/V559A-BaF3 cells (CCK-8). Format: cell-based. The note with it: Mus musculus; 72 hours, CCK-8; read-out: GI50 TEL-KIT/V559A-BaF3.
Text: as §1

For another assay, the system named is TEL-KIT/V654A-BaF3. In words: Proliferation of TEL-KIT/V654A-BaF3 cells (CCK-8). The note with it: Mus musculus; 72 hours, CCK-8; read-out: GI50 TEL-KIT/V654A-BaF3. Format: cell-based.
Text: as §1

Another assay deals with TEL-KIT/V654A/V559D-BaF3. In words: Proliferation of TEL-KIT/V654A/V559D-BaF3 cells (CCK-8). Particulars: Mus musculus; 72 hours, CCK-8; read-out: GI50 TEL-KIT/V654A/V559D-BaF3. It is filed as cell-based.
Text: as §1

For the next assay, the system named is TEL-KIT/V559D-BaF3. In words: Proliferation of TEL-KIT/V559D-BaF3 cells (CCK-8). Format: cell-based. The note with it: Mus musculus; 72 hours, CCK-8; read-out: GI50 TEL-KIT/V559D-BaF3.
Text: as §1

The subject of the next assay is TEL-KIT/T670E-BaF3. In words: Proliferation of TEL-KIT/T670E-BaF3 cells (CCK-8). Format: cell-based. The note with it: Mus musculus; 72 hours, CCK-8; read-out: GI50 TEL-KIT/T670E-BaF3.
Text: as §1

Another assay has as its system TEL-KIT/D816E-BaF3. Nature of the assay: Proliferation of TEL-KIT/D816E-BaF3 cells (CCK-8). Format: cell-based. Particulars: Mus musculus; 72 hours, CCK-8; read-out: GI50 TEL-KIT/D816E-BaF3.
Text: as §1

The subject of the next assay is TEL-KIT/D820Y-BaF3. Nature of the assay: Proliferation of TEL-KIT/D820Y-BaF3 cells (CCK-8). It is filed as cell-based. Particulars: Mus musculus; 72 hours, CCK-8; read-out: GI50 TEL-KIT/D820Y-BaF3.
Text: as §1

A further assay relates to TEL-KIT/A829P-BaF3. In words: Proliferation of TEL-KIT/A829P-BaF3 cells (CCK-8). Particulars: Mus musculus; 72 hours, CCK-8; read-out: GI50 TEL-KIT/A829P-BaF3. Format: cell-based.
Text: as §1

Another assay has as its system GIST-T1. In words: Proliferation of GIST-T1 cells (CCK-8). It is filed as cell-based. Particulars: Homo sapiens, GISTT1; 72 hours, CCK-8; read-out: GI50 GIST-T1.
Text: as §1, with “gene).” for “gene). The above cell lines were constructed by: amplifying respectively the sequences of human KIT and various mutant kinase regions of KIT via PCR, inserting the fragments respectively into MSCV-Puro vectors having a N-terminal TEL fragment and/or a NPM fragment and/or a TPR fragment (purchased from Clontech), transfecting mouse BaF3 cells with the vectors by means of retrovirus to obtain stably transfected cells, removing the growth factor IL-3, and thereby eventually obtaining cell lines that depend on the transferred protein KIT or various mutants of KIT.”
as §2

In another assay the test system is TEL-KIT/V559G-BaF3. In words: Proliferation of TEL-KIT/V559G-BaF3 cells (CCK-8). It is filed as cell-based. Particulars: Mus musculus; 72 hours, CCK-8; read-out: GI50 TEL-KIT/V559G-BaF3.
Text: as §1

For the next assay, the system named is TEL-KIT/T670I/V559D-BaF3. In words: Proliferation of TEL-KIT/T670I/V559D-BaF3 cells (CCK-8). Format: cell-based. The note with it: Mus musculus; 72 hours, CCK-8; read-out: GI50 TEL-KIT/T670I/V559D-BaF3.
Text: as §1

The next assay deals with TEL-KIT/N822K-BaF3. In words: Proliferation of TEL-KIT/N822K-BaF3 cells (CCK-8). Format: cell-based. The note with it: Mus musculus; 72 hours, CCK-8; read-out: GI50 TEL-KIT/N822K-BaF3.
Text: as §1

Another assay concerns TEL-KIT/V560D-BaF3. In words: Proliferation of TEL-KIT/V560D-BaF3 cells (CCK-8). Format: cell-based. The note with it: Mus musculus; 72 hours, CCK-8; read-out: GI50 TEL-KIT/V560D-BaF3.
Text: as §1

The test system of a further assay is TEL-KIT/D820E-BaF3. In words: Proliferation of TEL-KIT/D820E-BaF3 cells (CCK-8). It is filed as cell-based. Particulars: Mus musculus; 72 hours, CCK-8; read-out: GI50 TEL-KIT/D820E-BaF3.
Text: as §1

Another assay relates to TEL-KIT/T670I-BaF3. In words: Proliferation of TEL-KIT/T670I-BaF3 cells (CCK-8). It is filed as cell-based, mouse. The note with it: Mus musculus; 72 hours, CCK-8; read-out: GI50 TEL-KIT/T670I-BaF3. An excerpt: Compounds as provided herein were further evaluated for their inhibitory effects on proliferation of cancer cells by testing their effects on growth of cancer cells. In this example the following cells were used: primary mouse B cells BaF3 (purchased from ATCC), GIST-T1 cells of the human gastrointestinal stromal tumor cell line (expressing wild-type KIT gene) (purchased from Cosmo Bio Co., Ltd. (Japan)). The present lab further constructed and used the following: mouse Tel-Kit-BaF3 (stably expressing KIT wild-type kinase), mouse Tel-Kit/T670I-BaF3 (stably expressing KIT T670I mutant kinase), mouse Tel-Kit/V559A-BaF3 (stably expressing KIT V559A mutant kinase), mouse Tel-Kit/V559D-BaF3 (stably expressing KIT V559D mutant kinase), mouse Tel-Kit/V559G-BaF3 (stably expressing KIT V559G mutant kinase), mouse Tel-Kit/V560D-BaF3 (stably expressing KIT V560D mutant kinase), mouse Tel-Kit/L576P-BaF3 (stably expressing KIT L576P mutant kinase), mouse Tel-Kit/V654A-BaF3 (stably expressing KIT V654A mutant kinase), mouse Tel-Kit/V654A/V559D-BaF3 (stably expressing KIT V654A V559D mutant kinase), mouse Tel-Kit/T670E-BaF3 (stably expressing KIT T670E mutant kinase), mouse Tel-Kit/T670I/V559D-BaF3 (stably expressing KIT T670I V559D mutant kinase), mouse Tel-Kit/S709F-BaF3 (stably expressing KIT S709F mutant kinase), mouse Tel-Kit/D816E-BaF3 (stably expressing KIT D816E mutant kinase), mouse Tel-Kit/D816H-BaF3 (stably expressing KIT D816H mutant kinase), mouse Tel-Kit/D820E-BaF3 (stably expressing KIT D820E mutant kinase), mouse Tel-Kit/D820G-BaF3 (stably expressing KIT D820G mutant kinase), mouse Tel-Kit/D820Y-BaF3 (stably expressing KIT D820Y mutant kinase), mouse Tel-Kit/N822K-BaF3 (stably expressing KIT N822K mutant kinase), mouse Tel-Kit/Y823D-BaF3 (stably expressing KIT Y823D mutant kinase), mouse Tel-Kit/A829P-BaF3 (stably expressing KIT A829P mutant kinase), GIST-T1-T670I cells of the human gastrointestinal stromal tumor cell line (expressing KIT-T670I mutant gene). The above cell lines were constructed by: amplifying respectively the sequences of human KIT and various mutant kinase regions of KIT via PCR, inserting the fragments respectively into MSCV-Puro vectors having a N-terminal TEL fragment and/or a NPM fragment and/or a TPR fragment (purchased from Clontech), transfecting mouse BaF3 cells with the vectors by means of retrovirus to obtain stably transfected cells, removing the growth factor IL-3, and thereby eventually obtaining cell lines that depend on the transferred protein KIT or various mutants of KIT. The GIST-T1-T670I (expressing C-KIT-T670I mutant gene) cell line was constructed by our laboratory as follows: designing sgRNA that targeted a region around T670 of the KIT gene with CRISPR Design Tool (website: crispr.mit.edu, Zhang Feng Lab), cloning it into pSpCas9(BB)-2A-Puro vector; co-transfecting cells with the resultant vector and a single-stranded oligonucleotide having T670I site mutation that is near to T670, subjecting the resultant to antibiotics screening, followed by dilution, and monocellular culture in a 96-well plate; validating the site T670 of the cells by sequence detection via Sanger sequencing.

Take `Cc1ccc(NC(=O)c2ccc(CN3CCN(C)CC3)cc2)cc1Nc1nccc(-c2cccnc2)n1` [Imatinib, reference compound]: the GI50 in the assay on TEL-KIT/S709F-BaF3 was 115 nM; in the assay with GIST-T1/T670I, more than 10000 nM; in the assay with TEL-KIT/D816H-BaF3, 651 nM; with TEL-KIT/Y823D-BaF3 it was 5870 nM; with TEL-KIT/D820G-BaF3 it was 337 nM; with TEL-KIT/V559A-BaF3 it was 905 nM. The GI50 in the assay with TEL-KIT/V654A-BaF3 came to 1410 nM; in the assay on TEL-KIT/V654A/V559D-BaF3, 608 nM; with TEL-KIT/V559D-BaF3, 10 nM; with TEL-KIT/T670E-BaF3, 4080 nM; with TEL-KIT/D816E-BaF3 it was 174 nM; with TEL-KIT/D820Y-BaF3 it was 435 nM. Further, the GI50 is 580 nM in the assay with TEL-KIT/A829P-BaF3; 15 nM in the assay on GIST-T1; 8 nM in the assay with TEL-KIT/V559G-BaF3; more than 10000 nM in the assay with TEL-KIT/T670I/V559D-BaF3; 1470 nM in the assay on TEL-KIT/N822K-BaF3; 3 nM in the assay on TEL-KIT/V560D-BaF3. Further, the GI50 in the assay on TEL-KIT/D820E-BaF3 was 35 nM; in the assay on TEL-KIT/T670I-BaF3, more than 10000 nM.

The values above are taken from patent US12404244B2, “Pan-KIT kinase inhibitor having quinoline structure and application thereof” (Tarapeutics Science Inc., priority 2018, dated 2025).
